Measurements as given in patent publication US20080063628A1, “METHODS TO PROMOTE CELL DIFFERENTIATION” (priority 2006, published 2008).

What was measured:
[1] = tested on: second amniotic fluid-derived cell line; assay: Two sequential low dose trichostatin A treatments, gene expression by RT-PCR (Example 7); type: cell-based, human; conditions: for Gata1 gene expression / HNF (HNF-3 beta) gene expression / Insulin gene expression / Pdx-1 gene expression / sox17 gene expression: 500 nM 0-24 h + 96-120 h
Procedure: (§1) Several cell lines obtained from different amniotic fluid specimens (see Example 14) and pancreas donors (see Example 13) were tested with similar results. Two lines at similar passage number but derived from different amniotic fluid specimens are shown in Table VII-A and Table VII-B for this example. One of these cell lines was also used in examples 2 and 4 above. In addition, this example also contains comparison data in Table VII-C and Table VII-D for a single pancreatic-derived stromal line grown to early and late passage number.
(§2) Amniotic fluid derived cells or pancreatic-derived stromal cells were seeded into 24-well tissue culture plates at a density of 5000/cm^2 and cultured in AMNIOMAX (Invitrogen) or DMEM with 10% FBS respectively under standard cell culture conditions until confluent. After the cells reached confluency, amniotic fluid derived cells were treated at time 0 hours with a dose of 500 nM trichostatin A, and pancreatic-derived stromal cells were treated with a dose of 1.25 μM trichostatin A solubilized in DMSO and medium. At time 24 hours, cell cultures underwent a complete medium change to remove all traces of trichostatin A. At time 96 hours, cell cultures were re-fed with fresh medium and received a second dose of trichostatin A at the same concentration as used previously. At time 120 hours, cell cultures again underwent a complete medium change and were cultured for an additional 24 hours or […] total incubation time.
(§3) Samples were taken daily for RT-PCR at the times indicated in Table VII-A to D. The culture medium was removed, and samples were rinsed in PBS then collected in RLT with β-mercaptoethanol (Qiagen). RNA was purified using the RNeasy Mini Kit (Qiagen) and RNA quantity and quality were determined using a spectrophotometer. cDNA was made using the iScript cDNA synthesis kit (BioRad).
(§4) Samples of 20 ng cDNA were used in each reaction to determine the expression levels of the following genes in amniotic fluid-derived cells: Gata1, HNF-3 beta, Pdx-1, insulin, and Sox17. Similarly, samples of 20 ng cDNA were used in each reaction to determine the expression level of the following genes in pancreatic-derived cells: glucagon, HNF-3 beta, insulin and Pdx-1. Real-Time PCR was performed on the Applied Biosystems 7500, and data was analyzed using the accompanying software according to the methods described in Example 15.
(§5) Real-time PCR amplifcation and quantitative analysis. Unless otherwise stated, all reagents were purchased from Applied Biosystems. Real-time PCR reactions were performed using the ABI PRISM™ 7500 Sequence Detection System. TAQMAN™ FAST UNIVERSAL PCR MASTER MIX™ (ABI, CA) was used with 20 ng of reverse transcribed RNA in a total reaction volume of 20 μl. Each cDNA sample was run in duplicate to allow correction of pipetting errors. Primers and FAM-labeled TAQMAN™ probes were used at concentrations of 200 nM. The level of expression for each target gene was normalized using the pre-developed Applied Biosystem's human glyceraldehyde-3-phosphate dehydrogenase (GAPDH) endogenous control kit. Primers and probes were designed using either ABI PRISM PRIMER EXPRESS™ software or a pre-developed ABI gene analysis kit. For each gene, either one of the primers or the probe were designed to be exon-boundary spanning. This eliminated the possibility of the primers/probe binding to any genomic DNA present. The primer and probe sets are listed as follows: Pdx-1 (Hs00426216), Insulin (Hs00355773), glucagon (Hs00174967), and FoxA2 (HNF 3-beta) (Hs00232764). The remaining primers were designed using the PRIMERS program (ABI, CA). After an initial 95° C. incubation for 20 sec, samples were cycled 40 times in two stages: a denaturation step at 95° C. for 3 sec, followed by an annealing/extension step at 60° C. for 30 sec. […]

[2] = tested on: late passage (P14) pancreatic-derived stromal cell line; assay: as above; type: cell-based, human; conditions: for HNF (HNF-3 beta) gene expression / Insulin gene expression / Pdx-1 gene expression / glucagon gene expression: 1.25 μM 0-24 h + 96-120 h
Procedure: as §1, §2, §3, §4, §5

[3] = 1.25 μM, after the second treatment cycle
[4] = 1.25 μM, following first treatment

With CC(/C=C/C(=O)NO)=C\[C@@H](C)C(=O)c1ccc(N(C)C)cc1 [trichostatin A] the “Pdx-1 RT-PCR detection cycle” value ([1]; 0.5 μM, 24 hours) was 39 cycles, the “Insulin RT-PCR detection cycle” value ([1]; 0.5 μM, 72 hours and remainder of the experiment) was 34 cycles and the “HNF-3 beta RT-PCR detection cycle” value ([1]; 0.5 μM, until 72 hours) was 34 cycles. The Gata1 gene expression ([1]; 24 hrs) was “nd (not detectable at >40 cycles by RT-PCR)”, the “HNF (HNF-3 beta) gene expression” value ([1]; 24 hrs) was “+++ (detectable at less than 35 cycles RT-PCR with SE less than 0.9)” and the Insulin gene expression ([1]; 24 hrs) was “nd (not detectable at >40 cycles by RT-PCR)”. For the same molecule, the Pdx-1 gene expression ([1]; 24 hrs) was “+ (detectable between 35 and 40 cycles RT-PCR)”, the sox17 gene expression ([1]; 24 hrs) was “+++ (detectable at less than 35 cycles RT-PCR with SE less than 0.9)” and the Gata1 gene expression ([1]; 48 hrs) was “nd (not detectable at >40 cycles by RT-PCR)”. For the same molecule, the “HNF (HNF-3 beta) gene expression” value ([1]; 48 hrs) was “+++ (detectable at less than 35 cycles RT-PCR with SE less than 0.9)”, the Insulin gene expression ([1]; 48 hrs) was “nd (not detectable at >40 cycles by RT-PCR)” and the Pdx-1 gene expression ([1]; 48 hrs) was “nd (not detectable at >40 cycles by RT-PCR)”. For the same molecule, the sox17 gene expression ([1]; 48 hrs) was “+++ (detectable at less than 35 cycles RT-PCR with SE less than 0.9)”, the Gata1 gene expression ([1]; 72 hrs) was “nd (not detectable at >40 cycles by RT-PCR)” and the “HNF (HNF-3 beta) gene expression” value ([1]; 72 hrs) was “+++ (detectable at less than 35 cycles RT-PCR with SE less than 0.9)”. For the same molecule, the Insulin gene expression ([1]; 72 hrs) was “+++ (detectable at less than 35 cycles RT-PCR with SE less than 0.9)”, the Pdx-1 gene expression ([1]; 72 hrs) was “nd (not detectable at >40 cycles by RT-PCR)” and the sox17 gene expression ([1]; 72 hrs) was “+++ (detectable at less than 35 cycles RT-PCR with SE less than 0.9)”. For the same molecule, the Gata1 gene expression ([1]; 96 hrs) was “nd (not detectable at >40 cycles by RT-PCR)”, the “HNF (HNF-3 beta) gene expression” value ([1]; 96 hrs) was “+ (detectable between 35 and 40 cycles RT-PCR)” and the Insulin gene expression ([1]; 96 hrs) was “+++ (detectable at less than 35 cycles RT-PCR with SE less than 0.9)”. The Pdx-1 gene expression ([1]; 96 hrs) was “nd (not detectable at >40 cycles by RT-PCR)”, the sox17 gene expression ([1]; 96 hrs) was “+++ (detectable at less than 35 cycles RT-PCR with SE less than 0.9)” and the Gata1 gene expression ([1]; 120 hrs) was “nd (not detectable at >40 cycles by RT-PCR)”. For the same molecule, the “HNF (HNF-3 beta) gene expression” value ([1]; 120 hrs) was “+ (detectable between 35 and 40 cycles RT-PCR)”, the Insulin gene expression ([1]; 120 hrs) was “+ (detectable between 35 and 40 cycles RT-PCR)” and the Pdx-1 gene expression ([1]; 120 hrs) was “nd (not detectable at >40 cycles by RT-PCR)”. For the same molecule, the sox17 gene expression ([1]; 120 hrs) was “+++ (detectable at less than 35 cycles RT-PCR with SE less than 0.9)”, the Gata1 gene expression ([1]; 144 hrs) was “nd (not detectable at >40 cycles by RT-PCR)” and the “HNF (HNF-3 beta) gene expression” value ([1]; 144 hrs) was “+ (detectable between 35 and 40 cycles RT-PCR)”. The Insulin gene expression ([1]; 144 hrs) was “+++ (detectable at less than 35 cycles RT-PCR with SE less than 0.9)”, the Pdx-1 gene expression ([1]; 144 hrs) was “nd (not detectable at >40 cycles by RT-PCR)” and the sox17 gene expression ([1]; 144 hrs) was “+++ (detectable at less than 35 cycles RT-PCR with SE less than 0.9)”. For the same molecule, the “HNF (HNF-3 beta) gene expression” value ([2]; 24 hrs) was “+ (detectable between 35 and 40 cycles by RT-PCR)”, the Insulin gene expression ([2]; 24 hrs) was “nd (not detectable at >40 cycles by RT-PCR)” and the Pdx-1 gene expression ([2]; 24 hrs) was “+++ (detectable at less than 35 cycles by RT-PCR with SE less than 0.9)”. For the same molecule, the glucagon gene expression ([2]; 24 hrs) was “+++ (detectable at less than 35 cycles by RT-PCR with SE less than 0.9)”, the “HNF (HNF-3 beta) gene expression” value ([2]; 48 hrs) was “nd (not detectable at >40 cycles by RT-PCR)” and the Pdx-1 gene expression ([2]; 48 hrs) was “nd (not detectable at >40 cycles by RT-PCR)”. For the same molecule, the glucagon gene expression ([2]; 48 hrs) was “+++ (detectable at less than 35 cycles by RT-PCR with SE less than 0.9)”, the “HNF (HNF-3 beta) gene expression” value ([2]; 72 hrs) was “nd (not detectable at >40 cycles by RT-PCR)” and the Insulin gene expression ([2]; 72 hrs) was “nd (not detectable at >40 cycles by RT-PCR)”. The Pdx-1 gene expression ([2]; 72 hrs) was “nd (not detectable at >40 cycles by RT-PCR)”, the glucagon gene expression ([2]; 72 hrs) was “+ (detectable between 35 and 40 cycles by RT-PCR)” and the “HNF (HNF-3 beta) gene expression” value ([2]; 96 hrs) was “nd (not detectable at >40 cycles by RT-PCR)”. The Insulin gene expression ([2]; 96 hrs) was “nd (not detectable at >40 cycles by RT-PCR)”, the Pdx-1 gene expression ([2]; 96 hrs) was “nd (not detectable at >40 cycles by RT-PCR)” and the glucagon gene expression ([2]; 96 hrs) was “nd (not detectable at >40 cycles by RT-PCR)”. For the same molecule, the “HNF (HNF-3 beta) gene expression” value ([2]; 120 hrs) was “+++ (detectable at less than 35 cycles by RT-PCR with SE less than 0.9)”, the Insulin gene expression ([2]; 120 hrs) was “nd (not detectable at >40 cycles by RT-PCR)” and the Pdx-1 gene expression ([2]; 120 hrs) was “++ (detectable at less than 35 cycles by RT-PCR with SE greater than 0.9)”. For the same molecule, the “HNF (HNF-3 beta) gene expression” value ([2]; 144 hrs) was “nd (not detectable at >40 cycles by RT-PCR)”, the Insulin gene expression ([2]; 144 hrs) was “nd (not detectable at >40 cycles by RT-PCR)” and the Pdx-1 gene expression ([2]; 144 hrs) was “nd (not detectable at >40 cycles by RT-PCR)”. The glucagon gene expression ([2]; 144 hrs) was “+ (detectable between 35 and 40 cycles by RT-PCR)”, the “HNF-3 beta RT-PCR detection cycle” value [2, 3] was 34 cycles and the “Pdx-1 RT-PCR detection cycle” value [2, 3] was 34 cycles. For the same molecule, the “glucagon RT-PCR detection cycle” value [2, 3] was 36 cycles, the “HNF-3β RT-PCR detection cycle” value [2, 4] was 33 cycles and the “Pdx-1 RT-PCR detection cycle” value [2, 4] was 33 cycles. For the same molecule, the “glucagon RT-PCR detection cycle” value [2, 4] was 33 cycles.
